Values quoted from earlier work, collected in patent publication US12168000B2, “Methods of treating pain” (Scilex Holding Company, priority 2020, dated 2024).

Experiments:
[1] = upon oral administration
[2] = hydrophobic and highly permeable drug

time for peak plasma concentrations [1]: approximately 3.0 hours
class of the biopharmaceutics classification system [2]: class II
SMILES: Cc1ccc(-c2cc(C(F)(F)F)nn2-c2ccc(S(N)(=O)=O)cc2)cc1 [Celecoxib, 4-[5-(4-methylphenyl)-3-(trifluoromethyl)-1H-pyrazol-1-yl] benzenesulfonamide]
